EC50 and AC50 data for 29 compounds are collected here from ChEMBL document CHEMBL1201862, “PubChem BioAssay data set” (2004).

Each structure is given as a SMILES string. Counter-ions that a name gives are not always drawn. Active and inactive are the calls of the source.

Assay [1] addresses T1, Heat shock factor protein 1 (Mus musculus, UniProt P38532).
T1 sequence (P38532 whole entry): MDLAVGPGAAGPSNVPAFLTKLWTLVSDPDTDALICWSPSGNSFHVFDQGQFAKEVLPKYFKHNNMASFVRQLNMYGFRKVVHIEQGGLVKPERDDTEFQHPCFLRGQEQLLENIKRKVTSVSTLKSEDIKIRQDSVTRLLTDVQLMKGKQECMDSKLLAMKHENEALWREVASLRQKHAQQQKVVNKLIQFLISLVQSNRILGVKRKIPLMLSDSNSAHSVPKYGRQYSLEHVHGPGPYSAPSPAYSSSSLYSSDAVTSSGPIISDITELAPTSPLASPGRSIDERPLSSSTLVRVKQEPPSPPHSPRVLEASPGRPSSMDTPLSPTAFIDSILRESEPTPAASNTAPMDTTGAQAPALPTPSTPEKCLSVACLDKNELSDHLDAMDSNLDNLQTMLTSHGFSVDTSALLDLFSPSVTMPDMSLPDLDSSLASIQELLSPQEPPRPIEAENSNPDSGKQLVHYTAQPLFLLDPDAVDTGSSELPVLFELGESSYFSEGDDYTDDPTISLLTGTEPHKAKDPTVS
In words: decrease of HSF1-responsive luciferase luminescence – cell-based, NIH3T3, dose retest, confirmation (AID 2382).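 Note: NIH3T3 fibroblasts with HSF1-driven luciferase reporter stressed by proteasome inhibitor MG132; luminescence from HSF1-driven luciferase expression after 8 hours of MG132 stress.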 It is filed as functional.

The target of the next assay is Cytochrome P450 2C9 (Homo sapiens, UniProt P11712).
The target in a further assay is T2, Cytochrome P450 1A2 (Homo sapiens, UniProt P05177).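 Note: PubChem cytochrome P450 panel assay, CYP1A2 panel member.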
T2 sequence (P05177 whole entry): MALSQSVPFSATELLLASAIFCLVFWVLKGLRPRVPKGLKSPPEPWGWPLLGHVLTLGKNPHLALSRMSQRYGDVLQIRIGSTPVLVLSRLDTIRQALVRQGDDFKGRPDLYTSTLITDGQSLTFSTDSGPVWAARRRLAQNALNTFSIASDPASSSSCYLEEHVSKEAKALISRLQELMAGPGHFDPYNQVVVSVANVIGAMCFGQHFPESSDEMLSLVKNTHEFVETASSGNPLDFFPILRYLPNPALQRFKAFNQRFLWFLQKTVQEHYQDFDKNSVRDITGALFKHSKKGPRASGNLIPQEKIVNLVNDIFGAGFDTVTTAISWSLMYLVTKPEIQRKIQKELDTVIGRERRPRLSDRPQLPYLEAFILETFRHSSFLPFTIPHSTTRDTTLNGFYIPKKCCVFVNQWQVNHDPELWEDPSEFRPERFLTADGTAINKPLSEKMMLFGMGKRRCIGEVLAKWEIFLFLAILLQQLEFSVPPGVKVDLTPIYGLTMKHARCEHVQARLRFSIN

A further assay deals with Cytochrome P450 3A4 (Homo sapiens, UniProt P08684).
The next assay addresses Cytochrome P450 2C19 (Homo sapiens, UniProt P33261). As to the kind of experiment: Cytochrome panel assay with activity outcomes. Panel member name: p450-cyp2c19 Compounds with AC50 equal or less than 10 uM are considered active. The note with it: read-out: AC50. It is filed as functional.

Chain of Cytochrome P450 2C19 (P33261 whole entry): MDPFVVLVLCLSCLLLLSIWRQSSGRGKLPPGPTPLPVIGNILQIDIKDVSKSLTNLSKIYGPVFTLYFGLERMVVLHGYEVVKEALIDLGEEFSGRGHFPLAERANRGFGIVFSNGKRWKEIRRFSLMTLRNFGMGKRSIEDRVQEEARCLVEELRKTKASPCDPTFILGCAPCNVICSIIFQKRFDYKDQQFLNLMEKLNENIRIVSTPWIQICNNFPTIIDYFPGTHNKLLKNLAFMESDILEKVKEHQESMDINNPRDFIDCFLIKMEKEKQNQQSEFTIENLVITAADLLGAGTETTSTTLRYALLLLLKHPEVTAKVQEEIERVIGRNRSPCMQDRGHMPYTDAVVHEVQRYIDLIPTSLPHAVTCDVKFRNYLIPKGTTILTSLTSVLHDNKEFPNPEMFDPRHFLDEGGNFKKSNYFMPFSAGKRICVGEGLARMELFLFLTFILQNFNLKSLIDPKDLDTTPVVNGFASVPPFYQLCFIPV
Chain of Cytochrome P450 2C9 (P11712 whole entry): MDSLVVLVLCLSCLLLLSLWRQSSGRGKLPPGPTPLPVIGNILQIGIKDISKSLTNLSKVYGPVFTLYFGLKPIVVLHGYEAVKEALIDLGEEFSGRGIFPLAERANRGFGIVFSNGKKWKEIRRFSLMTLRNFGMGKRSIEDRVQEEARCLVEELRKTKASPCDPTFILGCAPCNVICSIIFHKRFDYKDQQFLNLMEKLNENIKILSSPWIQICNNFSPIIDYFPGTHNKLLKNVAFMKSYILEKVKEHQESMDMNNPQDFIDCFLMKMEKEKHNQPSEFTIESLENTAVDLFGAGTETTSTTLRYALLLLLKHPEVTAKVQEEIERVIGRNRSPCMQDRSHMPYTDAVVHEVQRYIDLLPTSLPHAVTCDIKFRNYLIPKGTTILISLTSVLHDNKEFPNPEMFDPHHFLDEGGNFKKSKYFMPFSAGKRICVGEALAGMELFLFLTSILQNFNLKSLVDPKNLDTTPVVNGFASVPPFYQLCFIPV
Chain of Cytochrome P450 3A4 (P08684 whole entry): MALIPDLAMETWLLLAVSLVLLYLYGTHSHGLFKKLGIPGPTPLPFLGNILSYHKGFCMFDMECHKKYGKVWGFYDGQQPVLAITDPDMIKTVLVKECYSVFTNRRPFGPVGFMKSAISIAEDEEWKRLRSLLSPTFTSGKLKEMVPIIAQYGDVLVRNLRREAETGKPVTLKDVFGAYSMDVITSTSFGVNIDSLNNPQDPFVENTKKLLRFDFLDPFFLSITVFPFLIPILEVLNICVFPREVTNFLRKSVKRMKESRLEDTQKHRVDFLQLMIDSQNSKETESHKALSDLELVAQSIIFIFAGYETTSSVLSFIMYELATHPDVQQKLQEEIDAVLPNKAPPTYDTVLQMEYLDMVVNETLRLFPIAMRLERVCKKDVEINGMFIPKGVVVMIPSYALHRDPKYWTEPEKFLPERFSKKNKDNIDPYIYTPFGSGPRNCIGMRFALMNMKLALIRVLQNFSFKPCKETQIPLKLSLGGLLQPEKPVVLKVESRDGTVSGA

Take `COc1cccc2c(=O)n(CC(=O)NCCc3ccccc3)ccc12`: the EC50 in assay [1] is recorded as > 195 µM (not active). On the same count and under the same terms, in the case of `CC(C)c1ccc(NC(=O)Nc2cc3sccc3n2C)cc1` it was > 195 µM (not active). As to `O=C(CCCCCN1C(=O)c2ccccc2C1=O)NCc1ccccn1`, the AC50 at Cytochrome P450 2C9 is 31.6 µM (inconclusive); on Cytochrome P450 1A2 it was 14.1 µM (inconclusive); at Cytochrome P450 3A4, 25.1 µM (inconclusive). Take `CCNc1ncc2nc(CCc3ccccc3)c(=O)n(Cc3ccc(F)cc3)c2n1`: on Cytochrome P450 1A2, the AC50 is 3.16 µM (inconclusive).

As for `CN[C@H](CC(=O)O)C(=O)O` [N-METHYL-D-ASPARTIC ACID (NMDA)], at Cytochrome P450 1A2, the AC50 is 39.8 µM (inconclusive).

Regarding `O=C(O)Cn1c(=O)c2c3c(sc2n(Cc2ccc(Cl)cc2Cl)c1=O)CCCC3`, the EC50 in assay [1] is > 195 µM (not active). Consider `COC(=O)c1ccc2c(=O)n(-c3ccccc3)c(=S)[nH]c2c1`, for which the EC50 in assay [1] was > 195 µM (not active).

In the case of `COc1ccccc1N(C)S(=O)(=O)c1ccc(C(=O)NC(C)c2ccccc2)cc1` (stereo not drawn), the half-maximal effective concentration (EC50) in assay [1] is recorded as > 195 µM (not active). Same read-out and setting: as for `CC(C)CNS(=O)(=O)c1ccc(CCC(=O)N2CCOCC2)cc1`, the figure is > 195 µM (not active). Take `COCC(=O)N1CCC2(CC1)CN(Cc1cc(C(F)(F)F)cc(C(F)(F)F)c1)C2`: the AC50 is 20 µM (inconclusive) on Cytochrome P450 2C19, 12.6 µM (inconclusive) on Cytochrome P450 2C9 and 25.1 µM (inconclusive) on Cytochrome P450 1A2. `Cc1cc(C)c(C#N)c(SCC(=O)NC(C)(C)C)n1`: the EC50 in assay [1] was > 195 µM (not active). The same measure, in the same setting: in the case of `Cc1cc(S(=O)(=O)N2CCCC2)ccc1OCC(=O)NCc1ccccc1` it was > 195 µM (not active).

`Cc1ccc(C(=O)C(OC(=O)CCC(=O)Nc2cccc(C)c2)c2ccccc2)cc1` (stereo not drawn): on Cytochrome P450 1A2, the AC50 is 17.8 µM (inconclusive). In the case of `COCCn1c(=S)[nH]c2cc(C(=O)NC(C)C)ccc2c1=O`, on Cytochrome P450 1A2, the AC50 is 3.16 µM (inconclusive).

For `CCCCSC1=C(C#N)C(c2ccccc2C)CC(=O)N1` (stereo not drawn), the EC50 in assay [1] was > 195 µM (not active). For the compound `COc1ccccc1CNCC(O)(c1ccc(Cl)cc1)c1ccc(Cl)cc1`, the AC50 at Cytochrome P450 1A2 was 10 µM (inconclusive). Turning to `Cc1noc(NS(=O)(=O)c2ccc(N3Cc4ccccc4C3=O)cc2)c1C`, the EC50 in assay [1] is > 195 µM (not active). For `CN(C)CCCc1cc(C(=O)Nc2ccc(-c3ccncc3)cc2)ccc1O` [GR-55562], the AC50 is 31.6 µM (inconclusive) on Cytochrome P450 2C19, 39.8 µM (inconclusive) on Cytochrome P450 1A2 and 1.26 µM (inconclusive) at Cytochrome P450 3A4. As for `Cc1cc2ccc(OC(=O)c3ccc(NC(=N)N)cc3)cc2oc1=O`, the AC50 on Cytochrome P450 1A2 is 2.51 µM (inconclusive).

`COC(=O)N1CCC[C@@]2(CCN(C(c3ccccc3)c3ccccc3)C2)C1`: the results for the AC50 at Cytochrome P450 2C19, at Cytochrome P450 2C9 and at Cytochrome P450 1A2 were 39.8 µM (inconclusive), 25.1 µM (inconclusive) and 12.6 µM (inconclusive), respectively. Regarding `CCN1CCN(c2cc(C)c3cc(NC(=S)N4CCCC(C)C4)ccc3n2)CC1` (stereo not drawn), in assay [1], the EC50 is 11 µM (active).

Consider `CCCCCCCCCCCCCCCC[N+](C)(C)CCN(Cc1ccc(OC)cc1)c1ncccn1` [THONZONIUM], for which the AC50 on Cytochrome P450 2C9 was 15.8 µM (inconclusive); at Cytochrome P450 1A2, 20 µM (inconclusive).

Regarding `O=C(O)c1cc(S(=O)(=O)Nc2ccc3c(c2)OCCO3)c(Cl)cc1Cl`, the concentration for a half-maximal effect (EC50) in assay [1] was 2.54 µM (active). Same read-out and setting: in the case of `Cc1ccc2nc(O)c(CN(C(=O)c3cccc([N+](=O)[O-])c3)C(C)C)cc2c1` it was > 195 µM (not active); in that of `COCCCC/C(=N\OCCN)c1ccc(C(F)(F)F)cc1` [FLUVOXAMINE MALEATE], > 195 µM (not active). Consider `CN(CCC(=O)O)S(=O)(=O)c1ccccc1`, for which the AC50 on Cytochrome P450 1A2 is 3.16 µM (inconclusive). Take `O=C(CC1C(=O)NCCN1Cc1ccccc1F)NC1CCCCCC1` (stereo not drawn): the EC50 in assay [1] is 24.1 µM (active). On to `CCOc1ccccc1NC(=O)C(=O)NCC1CCCN1CC` (stereo not drawn), for which, at Cytochrome P450 1A2, the AC50 was 15.8 µM (inconclusive). The same measure, in the same setting: in the case of `O=C(CCS(=O)(=O)c1cccc2nsnc12)NC1CCCCC1` it was 25.1 µM (inconclusive).

The EC50 is the concentration needed to bring the measured effect to its halfway point. The term AC50 denotes the midpoint of the concentration-response curve, whichever way the signal moves.
